Structures are written as SMILES.

Holding throughout (assay): Kinobeads competition binding, L-363 cell lysate
What all share (conditions): 10 μM free compound, L-363 lysate

The target of one assay is CDK2 (Homo sapiens, UniProt P24941). Details: endogenous in cells. A digest of the protocol:
(§1)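 Kinases remaining free after lysate exposure to 10 μM test compound were pulled down by beads carrying the immobilized compound and compared with a DMSO-treated aliquot via iTRAQ LC-MS/MS. Cells had received MG132 (20 μM, 3 h).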

The target in a further assay is HPK1 (Homo sapiens, UniProt Q92918). Details: endogenous in cells. The essentials:
as §1

Another assay addresses LOK (Homo sapiens, UniProt O94804). Details: endogenous in cells. The essentials: as §1
For a further assay, the target named is MSK2 (Homo sapiens, UniProt O75676). Details: endogenous in cells. A digest of the protocol: as §1
Sequence of MSK2 (O75676 whole entry): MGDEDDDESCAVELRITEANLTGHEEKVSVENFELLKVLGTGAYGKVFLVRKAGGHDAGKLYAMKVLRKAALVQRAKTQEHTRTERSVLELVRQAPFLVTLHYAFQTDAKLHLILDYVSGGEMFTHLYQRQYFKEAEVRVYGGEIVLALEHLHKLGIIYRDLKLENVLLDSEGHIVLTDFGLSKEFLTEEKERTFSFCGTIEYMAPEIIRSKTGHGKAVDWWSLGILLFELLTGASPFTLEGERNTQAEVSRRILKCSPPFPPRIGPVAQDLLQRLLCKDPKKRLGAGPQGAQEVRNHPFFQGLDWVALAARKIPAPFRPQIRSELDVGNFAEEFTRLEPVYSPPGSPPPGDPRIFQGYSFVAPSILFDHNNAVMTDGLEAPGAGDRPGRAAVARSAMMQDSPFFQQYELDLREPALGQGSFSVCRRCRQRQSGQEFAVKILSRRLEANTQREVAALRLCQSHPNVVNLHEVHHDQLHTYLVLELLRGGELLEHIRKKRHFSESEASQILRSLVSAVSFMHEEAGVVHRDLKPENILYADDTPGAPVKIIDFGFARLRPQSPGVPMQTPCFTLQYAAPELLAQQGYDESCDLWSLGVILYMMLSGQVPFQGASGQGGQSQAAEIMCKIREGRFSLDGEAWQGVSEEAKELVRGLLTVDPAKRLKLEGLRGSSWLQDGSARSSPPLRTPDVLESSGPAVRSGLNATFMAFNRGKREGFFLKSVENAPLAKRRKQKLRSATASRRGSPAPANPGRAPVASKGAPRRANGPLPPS
A further assay has as its target T1, PKD2 (Homo sapiens, UniProt Q9BZL6).
T1 sequence (Q9BZL6 1-878): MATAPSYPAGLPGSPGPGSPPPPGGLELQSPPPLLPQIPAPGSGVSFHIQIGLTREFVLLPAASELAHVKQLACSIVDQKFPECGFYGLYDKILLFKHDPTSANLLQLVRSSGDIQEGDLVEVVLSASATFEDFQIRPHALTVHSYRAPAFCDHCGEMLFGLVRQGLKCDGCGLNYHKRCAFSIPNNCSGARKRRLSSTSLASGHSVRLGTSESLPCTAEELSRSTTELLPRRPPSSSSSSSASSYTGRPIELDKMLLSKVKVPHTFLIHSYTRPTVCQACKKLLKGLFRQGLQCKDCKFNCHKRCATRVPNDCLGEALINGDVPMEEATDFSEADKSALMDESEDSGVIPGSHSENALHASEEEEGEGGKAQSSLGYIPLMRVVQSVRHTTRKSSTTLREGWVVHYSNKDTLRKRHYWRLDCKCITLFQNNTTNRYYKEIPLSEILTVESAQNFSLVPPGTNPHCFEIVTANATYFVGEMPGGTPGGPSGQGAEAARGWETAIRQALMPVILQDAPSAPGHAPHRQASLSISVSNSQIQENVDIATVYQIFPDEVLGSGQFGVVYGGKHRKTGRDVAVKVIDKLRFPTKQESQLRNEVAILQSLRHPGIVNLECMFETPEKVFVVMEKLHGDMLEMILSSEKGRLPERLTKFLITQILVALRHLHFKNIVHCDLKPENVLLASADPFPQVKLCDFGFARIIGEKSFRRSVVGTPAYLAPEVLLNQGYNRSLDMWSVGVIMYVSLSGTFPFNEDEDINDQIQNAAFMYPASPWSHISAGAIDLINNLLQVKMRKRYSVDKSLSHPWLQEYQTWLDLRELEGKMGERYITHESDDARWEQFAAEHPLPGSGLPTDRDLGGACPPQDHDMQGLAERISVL
Details: endogenous in cells. The essentials: as §1

Another assay deals with PKN1 (Homo sapiens, UniProt Q16512). Details: endogenous in cells. A digest of the protocol: as §1
Sequence of PKN1 (Q16512 whole entry): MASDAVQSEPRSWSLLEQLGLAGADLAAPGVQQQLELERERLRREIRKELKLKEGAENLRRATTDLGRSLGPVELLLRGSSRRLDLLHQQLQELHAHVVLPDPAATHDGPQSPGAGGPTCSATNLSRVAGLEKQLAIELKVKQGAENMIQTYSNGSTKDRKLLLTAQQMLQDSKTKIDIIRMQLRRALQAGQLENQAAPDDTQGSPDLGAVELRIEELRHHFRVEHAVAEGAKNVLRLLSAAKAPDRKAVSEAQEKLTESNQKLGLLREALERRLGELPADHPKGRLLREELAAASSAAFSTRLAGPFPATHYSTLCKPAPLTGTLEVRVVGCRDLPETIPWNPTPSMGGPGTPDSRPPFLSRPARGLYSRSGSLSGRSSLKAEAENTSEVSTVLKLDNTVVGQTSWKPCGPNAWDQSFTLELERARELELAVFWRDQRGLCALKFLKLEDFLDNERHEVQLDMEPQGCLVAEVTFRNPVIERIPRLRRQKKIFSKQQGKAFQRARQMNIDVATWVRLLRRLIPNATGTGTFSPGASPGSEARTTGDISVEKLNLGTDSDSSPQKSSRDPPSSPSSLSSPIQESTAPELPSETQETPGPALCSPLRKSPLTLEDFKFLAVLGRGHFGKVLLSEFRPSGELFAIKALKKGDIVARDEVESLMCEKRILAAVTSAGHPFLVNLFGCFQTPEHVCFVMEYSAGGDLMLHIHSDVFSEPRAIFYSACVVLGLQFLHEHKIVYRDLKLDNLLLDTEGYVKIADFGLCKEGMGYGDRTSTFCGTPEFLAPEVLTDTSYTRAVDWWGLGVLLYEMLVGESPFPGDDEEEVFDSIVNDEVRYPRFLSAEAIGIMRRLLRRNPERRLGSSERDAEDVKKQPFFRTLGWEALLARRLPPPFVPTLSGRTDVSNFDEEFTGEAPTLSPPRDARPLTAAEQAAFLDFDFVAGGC
Another assay has as its target PLK1 (Homo sapiens, UniProt P53350). More on the design: endogenous in cells. The essentials: as §1
Another assay deals with RSK2 (Homo sapiens, UniProt P51812). Details: endogenous in cells. The essentials:
as §1

The next assay addresses T2, TEC (Homo sapiens, UniProt P42680).
T2 sequence (P42680 1-631): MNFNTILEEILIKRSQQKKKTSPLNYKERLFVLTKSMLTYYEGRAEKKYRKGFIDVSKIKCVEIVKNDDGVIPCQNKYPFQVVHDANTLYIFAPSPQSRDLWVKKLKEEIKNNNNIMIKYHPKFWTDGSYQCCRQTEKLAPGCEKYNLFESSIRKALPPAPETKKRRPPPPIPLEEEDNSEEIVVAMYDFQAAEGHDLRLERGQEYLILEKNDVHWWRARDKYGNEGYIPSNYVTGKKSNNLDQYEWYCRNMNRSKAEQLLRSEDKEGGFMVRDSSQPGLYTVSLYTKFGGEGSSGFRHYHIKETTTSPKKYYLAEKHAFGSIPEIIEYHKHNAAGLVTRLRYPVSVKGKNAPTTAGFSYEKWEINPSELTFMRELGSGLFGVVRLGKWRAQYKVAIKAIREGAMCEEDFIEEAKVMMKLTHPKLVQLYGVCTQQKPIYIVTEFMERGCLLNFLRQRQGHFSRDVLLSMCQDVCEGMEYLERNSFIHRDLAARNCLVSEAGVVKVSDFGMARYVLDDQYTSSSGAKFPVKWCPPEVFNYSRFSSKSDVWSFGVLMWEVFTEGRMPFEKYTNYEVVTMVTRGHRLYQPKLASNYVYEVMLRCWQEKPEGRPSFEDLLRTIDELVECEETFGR
Details: endogenous in cells. A digest of the protocol: as §1

A further assay has as its target PLK4 (Homo sapiens, UniProt O00444). Details: endogenous in cells; host or cells: L-363 cells (treated with MG132 before harvest). The procedure: (§2) To one aliquot of cell lysate 10 μM of the free compound (FIG. 3, CZC31326) was added and allowed to bind to proteins in the lysate. Then the affinity matrix with the immobilized compound was added to capture proteins that were not interacting with the previously added free compound. Beads were separated from the lysate and bead bound proteins were eluted in SDS sample buffer and subsequently separated by SDS-Polyacrylamide gel electrophoresis (FIG. 8). Suitable gel bands were cut out and subjected to in-gel proteolytic digestion with trypsin. The second lysate aliquot was processed identically, however no free compound was added (DMSO solvent control). Peptides originating from samples 1 and 2 were labeled with iTRAQ reagents (iTRAQ 114 and iTRAQ 117) and the combined samples were analyzed with a nano-flow liquid chromatography system coupled online to a tandem mass spectrometer (LC-MS/MS) experiment followed by iTRAQ reporter ion quantification in the MS/MS spectra as described in Example 2.
(§3) For this experiment the human plasma cell leukaemia line L-363 was used (German Collection of Microorganisms and Cell Cultures, DSMZ number ACC49, Braunschweig, Germany). Cells were treated for three hours with 20 μM of the proteasome inhibitor MG132 (Z-Leu-Leu-Leu-al, Sigma C2211) prior to cell harvesting.

A further assay has as its target STK33 (Homo sapiens, UniProt Q9BYT3). Details: endogenous in cells; host or cells: L-363 cells (treated with MG132 before harvest). The procedure:
as §2, §3

Sequence of PLK4 (O00444 whole entry): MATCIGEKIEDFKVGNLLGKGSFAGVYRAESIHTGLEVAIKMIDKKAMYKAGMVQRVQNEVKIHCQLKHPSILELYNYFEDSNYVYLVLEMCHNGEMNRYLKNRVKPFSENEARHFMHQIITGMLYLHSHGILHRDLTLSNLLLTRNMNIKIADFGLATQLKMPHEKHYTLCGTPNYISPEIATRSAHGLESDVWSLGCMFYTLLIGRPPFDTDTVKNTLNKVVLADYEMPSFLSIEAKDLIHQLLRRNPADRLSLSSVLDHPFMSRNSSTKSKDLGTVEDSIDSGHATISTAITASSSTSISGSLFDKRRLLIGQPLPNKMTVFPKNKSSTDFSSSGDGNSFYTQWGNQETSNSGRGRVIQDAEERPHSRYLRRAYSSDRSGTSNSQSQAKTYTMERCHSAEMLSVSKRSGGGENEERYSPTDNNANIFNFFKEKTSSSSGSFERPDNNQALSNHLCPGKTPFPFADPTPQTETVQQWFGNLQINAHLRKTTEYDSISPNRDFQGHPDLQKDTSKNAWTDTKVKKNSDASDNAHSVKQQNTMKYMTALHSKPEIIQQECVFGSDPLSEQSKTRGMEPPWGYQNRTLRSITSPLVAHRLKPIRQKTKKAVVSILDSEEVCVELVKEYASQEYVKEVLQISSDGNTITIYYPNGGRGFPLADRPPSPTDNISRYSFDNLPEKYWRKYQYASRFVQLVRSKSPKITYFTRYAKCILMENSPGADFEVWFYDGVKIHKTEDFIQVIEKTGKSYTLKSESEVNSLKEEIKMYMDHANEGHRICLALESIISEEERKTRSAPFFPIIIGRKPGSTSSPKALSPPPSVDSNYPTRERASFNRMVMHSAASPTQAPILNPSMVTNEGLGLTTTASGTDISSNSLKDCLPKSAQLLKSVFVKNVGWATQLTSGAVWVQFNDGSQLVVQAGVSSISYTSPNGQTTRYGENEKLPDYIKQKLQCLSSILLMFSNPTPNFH
Sequence of STK33 (Q9BYT3 whole entry): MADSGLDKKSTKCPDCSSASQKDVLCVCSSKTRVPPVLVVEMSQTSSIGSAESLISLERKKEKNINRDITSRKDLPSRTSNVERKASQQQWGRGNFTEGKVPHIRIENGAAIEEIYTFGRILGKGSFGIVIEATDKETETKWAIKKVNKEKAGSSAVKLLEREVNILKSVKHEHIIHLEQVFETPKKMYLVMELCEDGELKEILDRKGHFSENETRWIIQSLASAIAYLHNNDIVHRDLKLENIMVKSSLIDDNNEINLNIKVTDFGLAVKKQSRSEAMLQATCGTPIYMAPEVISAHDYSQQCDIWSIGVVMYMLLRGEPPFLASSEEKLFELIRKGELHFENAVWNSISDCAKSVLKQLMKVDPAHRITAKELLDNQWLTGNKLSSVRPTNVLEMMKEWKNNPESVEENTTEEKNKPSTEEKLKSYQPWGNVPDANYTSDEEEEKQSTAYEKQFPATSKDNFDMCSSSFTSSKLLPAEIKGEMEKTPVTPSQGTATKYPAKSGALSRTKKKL
Sequence of RSK2 (P51812 whole entry): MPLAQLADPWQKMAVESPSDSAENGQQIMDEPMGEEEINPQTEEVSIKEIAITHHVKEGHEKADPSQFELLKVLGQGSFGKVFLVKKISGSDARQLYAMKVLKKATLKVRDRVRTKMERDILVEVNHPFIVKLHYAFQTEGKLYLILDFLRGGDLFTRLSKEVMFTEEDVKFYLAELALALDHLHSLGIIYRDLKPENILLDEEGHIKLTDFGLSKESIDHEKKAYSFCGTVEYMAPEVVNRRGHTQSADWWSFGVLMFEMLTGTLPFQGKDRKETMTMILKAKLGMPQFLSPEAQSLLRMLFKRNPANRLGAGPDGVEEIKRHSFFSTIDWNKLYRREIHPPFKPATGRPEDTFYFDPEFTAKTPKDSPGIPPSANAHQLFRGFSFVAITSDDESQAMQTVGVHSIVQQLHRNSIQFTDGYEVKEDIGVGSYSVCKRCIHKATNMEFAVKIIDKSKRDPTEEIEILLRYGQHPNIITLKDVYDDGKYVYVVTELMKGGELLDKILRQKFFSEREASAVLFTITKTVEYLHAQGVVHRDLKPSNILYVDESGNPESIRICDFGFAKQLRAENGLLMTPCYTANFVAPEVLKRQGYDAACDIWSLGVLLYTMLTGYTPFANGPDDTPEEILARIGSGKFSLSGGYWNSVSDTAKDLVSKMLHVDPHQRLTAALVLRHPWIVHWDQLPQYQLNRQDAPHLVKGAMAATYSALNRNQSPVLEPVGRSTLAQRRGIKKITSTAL
Sequence of HPK1 (Q92918 whole entry): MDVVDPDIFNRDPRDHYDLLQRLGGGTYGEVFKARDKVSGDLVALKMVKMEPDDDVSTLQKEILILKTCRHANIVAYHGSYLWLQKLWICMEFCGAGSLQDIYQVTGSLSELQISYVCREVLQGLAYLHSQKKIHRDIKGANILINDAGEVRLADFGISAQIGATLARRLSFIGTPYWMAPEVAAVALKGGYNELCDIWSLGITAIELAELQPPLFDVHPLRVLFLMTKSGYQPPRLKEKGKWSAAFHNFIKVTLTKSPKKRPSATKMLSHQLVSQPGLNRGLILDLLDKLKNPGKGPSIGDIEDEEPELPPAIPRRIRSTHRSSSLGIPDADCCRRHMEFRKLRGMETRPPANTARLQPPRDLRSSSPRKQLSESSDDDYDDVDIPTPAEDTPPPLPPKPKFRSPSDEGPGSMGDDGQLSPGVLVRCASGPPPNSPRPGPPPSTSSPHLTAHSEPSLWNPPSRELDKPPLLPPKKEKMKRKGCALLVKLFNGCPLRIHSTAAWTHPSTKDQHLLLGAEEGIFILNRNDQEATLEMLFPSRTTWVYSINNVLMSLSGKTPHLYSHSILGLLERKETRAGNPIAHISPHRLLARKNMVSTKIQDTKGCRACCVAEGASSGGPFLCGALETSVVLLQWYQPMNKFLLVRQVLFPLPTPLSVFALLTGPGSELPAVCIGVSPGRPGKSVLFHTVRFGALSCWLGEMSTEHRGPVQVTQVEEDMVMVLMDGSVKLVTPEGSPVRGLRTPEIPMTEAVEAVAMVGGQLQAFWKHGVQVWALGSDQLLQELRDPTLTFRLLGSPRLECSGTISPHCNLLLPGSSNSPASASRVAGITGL

`CS(=O)(=O)Nc1ccccc1Nc1nc(Nc2cccc(OCCN)c2)ncc1Cl` [CZC31326, N-(2-(2-(3-(2-aminoethoxy)phenylamino)-5-chloropyrimidin-4-ylamino)phenyl)methanesulfonamide]: the results for the Competition % at CDK2 and at LOK were 95.2% and 86.9%, respectively. Besides, the inhibition – broadly, the drop in the measured response relative to a control, in per cent – at 10 µM at HPK1 is 98%; at MSK2, 94.2%; at PKD2, 98%; on PKN1, 95.9%; on PLK1, 96.8%; on RSK2, 97.7%. In addition, the inhibition at 10 µM on TEC is 92.8%; on PLK4, 91.2%; at STK33, 95.7%.

The values above are taken from US20120270237A9, “METHODS FOR THE IDENTIFICATION OF KINASE INTERACTING MOLECULES AND FOR THE PURIFICATION OF KINASE PROTEINS” (Cellzone AG, priority 2009, published 2012).
